# Columns and labels:
# RL spheroids = RL spheroids co-cultured with chronically stimulated anti-CD19 CAR T cells; assay type: cell-based; details: 8 days
# Method: Anti-CD19 CAR-expressing T cells, generated from healthy donors as described above, were chronically stimulated under conditions to exhaust T cell activity by incubation for 8 days with beads coated in anti-idiotypic (anti-ID) antibody directed against the CAR. After the 8 days of chronic stimulation, the anti-CD19 CAR-expressing T cells were harvested and subsequently co-cultured with RL cells engineered to express NLR for 8 days at an E:T ratio of 1:1. As a control, RL cells were cultured in the absence of anti-CD19 CAR T cells. Subtherapeutic concentrations of the exemplary BCL2 inhibitor venetoclax (0.01 μM or 0.1 μM) were added to the cultures, and the number of cells was assessed over time (FIG. 6A).
# In another experiment, spheroids were generated from CD19-expressing RL cells as previously described, and co-cultured for 8 days with anti-CD19 CAR T cells at an E:T ratio of 1:1 and increasing concentrations of venetoclax (0.01 μM, 0.1 μM, or 1.0 μM), or with only corresponding concentrations of venetoclax. As before, the anti-CD19 CAR T cells were chronically stimulated with anti-ID antibody-coated beads prior to co-culture with the RL spheroids. […] Overall, the size of the RL spheroids cultured with both anti-CD19 CAR T cells and venetoclax decreased more, and with lower concentrations of venetoclax, compared to that of RL spheroids cultured with just venetoclax.
# anti-CD19 CAR T cells [1] = assay: Caspase 3 expression and expansion of CAR T cells incubated with anti-ID beads and venetoclax; assay type: cell-based; details: 0.01, 0.1, 1 or 10 μM, 48 hours post-stimulation
# Method: Anti-CD19 CAR-expressing T cell compositions from healthy donors were incubated with anti-ID antibody-coated beads at 37° C. in the presence of increasing concentrations of venetoclax (0.01 μM, 0.1 μM, 1 μM, or 10 μM) for 48 hours. As a control, CART cells were incubated under the same conditions, but without venetoclax. Caspase 3 expression, viability, and expansion kinetics of the CAR T cells were subsequently assessed.
# [2] = test system: cancer cells resistant to CAR T cell-mediated killing; assay: T cell-mediated killing of cancer cells by CAR T cells in presence of BCL2 inhibitor; assay type: cell-based; details: cancers resistant to T cell therapy alone, low doses without activity on tumor alone
# CD3+ CAR T cells = assay: Delayed addition of venetoclax to RL / CAR T co-culture, CAR T cell number; assay type: cell-based; details: 6 days
# Method: RL target cells were co-cultured with CD19-targeting CAR T cells, generated substantially as described in Example 1, for 6 days in the absence or presence of the exemplary BCL2 inhibitor venetoclax (0.01 μM, 0.1 μM, or 1.0 μM). Venetoclax was added concurrently with co-culture or 24, 48, or 72 hours after the start of co-culture. As a control, RL target cells were cultured in the presence of venetoclax, but without CAR T cells.
# After 6 days of co-culture, the number of CD3+ CAR T cells and target cells was assessed.
# anti-CD19 CAR T cells [3] = assay: CAR T cell viability, ATP luciferin reporter assay after 96 hours anti-idiotypic antibody stimulation; assay type: cell-based, human
# Method: Anti-CD19 CAR-expressing T cell compositions were generated from three human adult donors, substantially as described in Example 1. Anti-CD19 CAR T cells were stimulated for 96 hours with an anti-idiotypic antibody in the presence of an exemplary BCL2 inhibitor venetoclax solubilized in dimethylsulfoxide (DMSO). Control anti-CD19 CAR T cells were stimulated for 96 hours with the anti-idiopathic antibody in the presence of an equal amount of DMSO. Specifically, anti-CD19 CAR-expressing cells were added to the wells of a 96-well plate that had been pre-coated with an anti-idiotypic antibody specific to the scFv of the anti-CD19 CAR-expressing T cells described in Example 1 at a concentration of 30 μg/ml. The cells were cultured in the presence of 5% human serum at 37° C. and 5% CO2. After 96 hours, cells were lysed and ATP from viable cells was detected via a luciferin reporter assay and reported as relative luminescence units. Venetoclax-treated CAR T cell counts were assessed and normalized to DMSO control CAR T cell counts.
# JeKo-1 target cells = assay: JeKo-1 target cell co-culture for 100 hours; assay type: cell-based
# Method: Further, the cytolytic activity of anti-CD19 CAR T cells was not affected when co-cultured with JeKo-1 target cells for 100 hours in the presence of 1.0 μM venetoclax.
# RL cells = assay: RL target cell co-culture with CAR T cells and venetoclax (NLR microscopy); assay type: cell-based; details: with CAR T cells E:T 1:1, 0.1 venetoclax
# Method: Anti-CD19 CAR-expressing T cell compositions, generated as described in Example 1, were cultured with the CD19-expressing lymphoma target cell line RL. Target cells were engineered with a lentiviral reagent to express NucLight Red (NLR) to permit tracking of the cells by microscopy. […] The anti-CD19 CART cells were co-cultured with target RL cells at an E:T ratio of 1:1, and the co-cultures were carried out in the presence of 0.1 μM of the exemplary BCL2 inhibitor venetoclax. For comparison, target cells were incubated only in the presence of the CAR T cells or 0.1 μM of the inhibitor.
# RL target cells = assay: Co-culture of tumor cells and CAR T cells, venetoclax added at initiation or 24, 48 or 72 hours later (Example 9): tumor cell killing; assay type: cell-based, human
# Method: FIGS. 14A and 14B show the number of CD3+CAR+ T cells and RL target cells, respectively, following a 6-day co-culture. Various concentrations of an exemplary BCL2 inhibitor were provided in the co-culture at its initiation, or 24, 48, or 72 hours after the initiation of co-culture.
# Thus, in some cases, the cytotoic effects of a BCL2 inhibitor, e.g. venetoclax, and a T cell therapy (e.g. CAR T cells) may be synergistic to result in cell death of cells otherwise resistant to treatment with the T cell therapy alone. In some cases, administration of the inhibitor, e.g. venetoclax, may sensitize otherwise resistant cancer cells to CAR T cell-mediated killing when it is administered within or at about 7 days after administration of the cell therapy.
structure (smiles),measurement,setting,value
CC1(C)CCC(CN2CCN(c3ccc(C(=O)NS(=O)(=O)c4ccc(NCC5CCOCC5)c([N+](=O)[O-])c4)c(Oc4cnc5[nH]ccc5c4)c3)CC2)=C(c2ccc(Cl)cc2)C1 [venetoclax],tumor size,"RL spheroids; venetoclax 0.01, 0.1 or 1.0 μM in the absence of CAR T cells",decreases in tumor size were only observed with 1 μM venetoclax
same,tumor size,"RL spheroids; with chronically stimulated CAR T cells E:T 1:1, venetoclax 0.01, 0.1 or 1.0 μM",greater decreases in tumor size were seen with increasing concentrations of venetoclax
same,percentage of CAR+ T cells expressing caspase 3,anti-CD19 CAR T cells [1],larger percentages of CAR+ T cells expressing caspase 3
same,T cell-mediated killing of cancer cells by a T cell therapy (CAR T cells),[2],improves T cell-mediated killing of cancer cells
same,number of CD3+ CAR T cells,"CD3+ CAR T cells; 0.01 μM, all time points",not observed to reduce CD3+ CAR T cell number
same,number of CD3+ CAR T cells,CD3+ CAR T cells; 0.1 μM or 1.0 μM added concurrently or 24 hours later,reduced
same,number of CD3+ CAR T cells,"CD3+ CAR T cells; added 48 or 72 hours following co-culture, any concentration",a reduction in CD3+ CAR T cells was not observed
same,IC50,"anti-CD19 CAR T cells [3]; T-cell, average among three donors, 5% human serum",7.9 µM
same,percentage of viable anti-CD19 CAR-expressing T cells,anti-CD19 CAR T cells [3]; increasing doses,decreased with increasing doses of venetoclax
same,cytolytic activity of anti-CD19 CAR T cells,"JeKo-1 target cells; 1.0 μM venetoclax, 100 hours",not affected
same,number of JeKo-1 target cells,JeKo-1 target cells; venetoclax alone,not reduced
same,target cell killing,RL cells,sensitized to the CD19-directed CAR T cell killing
same,antitumor effects of CAR T cells,"RL target cells; inhibitor administered when activation-induced cell death of CAR T cells has peaked (e.g. 2-7 days after CAR T cells), Example 9",potent antitumor effects
same,sensitization of tumor cells to CAR T cell-mediated killing,RL target cells; therapeutic dose administered 48 or 72 hours after initiation of co-culture of tumor cells and CAR T cells,able to sensitize the tumor cells to CAR T cell-mediated killing
